The source of these data is patent US6479070B1, “Compositions containing pinolenic acid and its use as a health component” (Unilever Patent Holdings, priority 1999, dated 2002).

For this assay, the system named is PMA stimulated PGE2 Levels in Human Skin Fibroblasts. The conditions noted are these: primary human foreskin fibroblasts, pinolenic acid even at levels of 10 ng/ml, 24 h pre-incubation. As to the method: A reduction of the levels of ICAM and PGE2 is indicative for the anti-inflammatory effect. Primary human foreskin fibroblasts at passage 2 (P2) were seeded into 96-well plates at 10000 cells/well and maintained for 24 hours in an atmosphere of 5% carbon dioxide in Dulbeccos Modified Eagles Medium (DMEM) supplemented with 10% foetal calf serum. […] PMA represents an external stressor which induces oxidative stress and inflammatory responses in cells. The fibroblasts/media were then analysed as described below immediately or snap frozen in liquid nitrogen and stored at −70° C. for future analysis. […] PGE2 levels in the medium were determined with a Biotrak PGE2 immunoassay kit (Amersham, UK). The assay is based on the competition between unlabelled PGE2 in the sample and a fixed quantity of horseradish peroxidase labelled PGE2 for a limited amount of fixed PGE2 specific antibody. Concentrations of unlabelled sample PGE2 are determined according to a standard curve which was obtained at the same time.

Turning to `CCCCC/C=C\C/C=C\CC/C=C\CCCC(=O)O` [Pinolenic acid, 5,9,12 C18:3 fatty acid], the “inflammatory response as measured by PGE2 production” value is given as “dramatically reduces the inflammatory response”.
